Measurements reported in PMC5552782, “Crystal Structure of MpPR-1i, a SCP/TAPS protein from Moniliophthora perniciosa, the fungus that causes Witches’ Broom Disease of Cacao” (Scientific Reports, 2017).

Target: T1, MpPR-1i (Moniliophthora perniciosa, UniProt H6U756)
T1 construct: gene PR-1i; signal peptide removed; cDNA from green broom stage; modified pET SUMO, E. coli SHuffle; His-SUMO tag cut with ULP-1; untagged; monomer
Assay: radioligand binding, Q-sepharose capture, scintillation counting

T1 sequence (H6U756 entry or part of it): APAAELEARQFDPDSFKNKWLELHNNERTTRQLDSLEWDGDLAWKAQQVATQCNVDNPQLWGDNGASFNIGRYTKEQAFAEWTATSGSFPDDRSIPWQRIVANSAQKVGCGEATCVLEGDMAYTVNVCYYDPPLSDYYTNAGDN

Compound `CCCCCCCCCCCCCCCC(=O)O` [palmitic acid] has a Kd of 107 µM.
